Active and inactive are the calls of the source. The calls are words filed in the database; no cut-off is given here.

Assay [1] relates to Daudi. Description: Induction of mitochondrial respiratory chain damage in human Daudi cells assessed as decrease in SDHA protein expression at 1.5 to 3 uM incubated for 48 hrs by Western blot analysis. Format: functional, cell-based. As to conditions: dose 1.5-3 µM. On the technique in general: In western blotting, separated proteins are transferred to a membrane and probed.

Assay [2] has as its system Raji. The assay can be described thus: Induction of apoptosis in human Raji cells assessed as upregulation of cleaved PARP expression at 1.25 to 5 uM incubated for 24 hrs by Western blot analysis. Format: functional, cell-based. As to conditions: dose 1.25-5 µM.
Assay [3] concerns Raji. The assay can be described thus: Induction of cell cycle arrest at G0/G1 phase in human Raji cells assessed as downregulation of CDK4 protein expression at 1.25 to 5 uM incubated for 24 to 48 hrs by Western blot analysis. The format is functional, cell-based. As to conditions: dose 1.25-5 µM, time 24-48 hrs.
For assay [4], the system named is Raji. The assay can be described thus: Induction of apoptosis in human Raji cells assessed as effect on cleaved caspase-8 protein expression at 1.25 to 5 uM incubated for 24 hrs by Western blot analysis. The format is functional, cell-based. As to conditions: dose 1.25-5 µM.
The subject of assay [5] is Raji. Description: Induction of apoptosis in human Raji cells assessed as upregulation of cleaved caspase-3 expression at 1.25 to 5 uM incubated for 24 hrs by Western blot analysis. Format: functional, cell-based. As to conditions: dose 1.25-5 µM.
Assay [6] concerns Raji. The assay can be described thus: Induction of mitochondrial dysfunction in human Raji cells assessed as decrease in ATP content incubated for 24 hrs by CellTiter-Lumi […] assay. The format is functional, cell-based. As to conditions: dose 1.25-5 µM.
The test system of assay [7] is Raji. Description: Induction of cell cycle arrest in human Raji cells assessed as S phase cells at 5 uM incubated for 48 hrs by PI staining based flow cytometry analysis (reference value: 69.78%). Format: functional. (In general: In flow cytometry, cells or beads pass a laser one at a time.)
Assay [8] can be described thus: Inhibition of PI3K/AKT/mTOR signalling pathway in human Raji cells assessed as inhibition of AKT phosphorylation at […] residue incubated for 24 hrs by Western blot analysis. As to conditions: dose 1.25-5 µM. Format: cell-based.
Assay [9] relates to Raji. The assay can be described thus: Induction of apoptosis in human Raji cells assessed as nuclear fragmentation incubated for 48 hrs by Hoechst 33258/PI staining based fluorescence microscopic analysis. The format is functional, cell-based. As to conditions: dose 1.25-5 µM.
In assay [10] the test system is Daudi. The assay can be described thus: Induction of apoptosis in human Daudi cells assessed as viable cells at 3 uM incubated for 24 hrs in the presence of YS49 by Annexin V-FITC/PI staining based flow cytometric analysis (reference value: 97.2%). As to conditions: read-out: Activity. The format is functional.
For assay [11], the system named is Raji. The assay can be described thus: Induction of cell cycle arrest at G0/G1 phase in human Raji cells assessed as downregulation of CDK2 protein expression at 1.25 to 5 uM incubated for 24 to 48 hrs by Western blot analysis. The format is functional, cell-based. As to conditions: dose 1.25-5 µM, time 24-48 hrs.
Assay [12] concerns Raji. Description: Effect on total PI3K protein level in human Raji cells at 1.25 to 5 uM incubated for 24 hrs by Western blot analysis. As to conditions: dose 1.25-5 µM. Format: functional, cell-based.
Assay [13] has as its system Daudi. Description: Induction of mitochondrial dysfunction in human Daudi cells assessed as decrease in ATP-5H protein expression at 1.5 to 3 uM incubated for 48 hrs by Western blot analysis. Format: functional, cell-based. As to conditions: dose 1.5-3 µM.
Assay [14] in a line: Inhibition of PI3K/AKT/mTOR signalling pathway in human Daudi cells assessed as increase in ratio of PI3K phosphorylation to total PI3K protein level at 3 uM incubated for 12 hrs in the presence of YS49 by Western blot analysis. Format: cell-based.
Assay [15] relates to Daudi. The assay can be described thus: Effect on total mTOR protein level in human Daudi cells at 0.75 to 3 uM incubated for 24 hrs by Western blot analysis. Format: functional, cell-based. As to conditions: dose 0.75-3 µM.
Assay [16] deals with Daudi. Description: Induction of apoptosis in human Daudi cells assessed as viable cells at 3 uM incubated for 24 hrs by Annexin V-FITC/PI staining based flow cytometric analysis (reference value: 97.2%). Format: functional. As to conditions: read-out: Activity.
In assay [17] the test system is Daudi. Description: Induction of apoptosis in human Daudi cells assessed as late apoptotic cells at 3 uM incubated for 24 hrs by Annexin V-FITC/PI staining based flow cytometric analysis (reference value: 0.0%). The format is functional.
Assay [18] relates to Raji. The assay can be described thus: Effect on total AKT protein level in human Raji cells at 1.25 to 5 uM incubated for 24 hrs by Western blot analysis. The format is functional, cell-based. As to conditions: dose 1.25-5 µM.
In assay [19] the test system is Raji. The assay can be described thus: Induction of apoptosis in human Raji cells assessed as necrotic cells at 5 uM incubated for 24 hrs by Annexin V-FITC/PI staining based flow cytometric analysis (reference value: 1.5%). Format: functional.
Assay [20] relates to Raji. The assay can be described thus: Induction of mitochondrial respiratory chain damage in human Raji cells assessed as decrease in CYC1 protein expression at 2.5 to 5 uM incubated for 48 hrs by Western blot analysis. Format: functional, cell-based. As to conditions: dose 2.5-5 µM.
For assay [21], the system named is Daudi. The assay can be described thus: Induction of cell cycle arrest in human Daudi cells assessed as accumulation of cells at G0/G1 phase at 3 uM incubated for 24 hrs by PI staining based flow cytometry analysis (reference value: 24.28%). The format is functional.
Assay [22] relates to Daudi. Description: Induction of apoptosis in human Daudi cells assessed as effect on Bax protein expression at 0.75 to 3 uM incubated for 24 hrs by Western blot analysis. As to conditions: dose 0.75-3 µM. The format is functional, cell-based.

On to `COc1c(OC)c2c3c(nccc3c1-c1cc(C)cc(C)c1)C(c1cc(C)cc(C)c1)=CN2`, for which the result in assay [1], in [2], in assay [3], in assay [5], in assay [11] and in assay [13] was Active. Besides, the result in assay [20] was Active. In addition, the result in assay [4], in assay [12], in [15], in [18] and in assay [22] was inactive. In addition, the Activity entry in assay [6] is “Dose-Dependent Effect”; in assay [7] it was 49.74%; in assay [9] it was “Dose-Dependent Effect”; in assay [17] it was 5.4%; in [19], 17%; in assay [21] it was 49.7%. Besides, the inhibition entry in assay [8] is “Dose-Dependent Effect”. For the same molecule, the viability at 3 µM in assay [10] is 80.2%; in assay [16], 72.7%. Besides, the inhibition result in assay [14] was “inactive”.

The record behind these values is ChEMBL document CHEMBL5226361, “Marine Sponge-Derived Alkaloid Induces Mitochondrial Dysfunction and Inhibits the PI3K/AKT/mTOR Signaling Pathway against Burkitt's Lymphoma” (J Nat Prod, 2023).
